# Assay results from patent US11034685B2, “Aminopyridine derivatives as TAM family kinase inhibitors” (SignalChem Lifesciences Corporation, priority 2013, dated 2021).
# Key:
# Format in all cases: biochemical
# [1] = target: T1, Recombinant human Tyro3 (455-end) (Homo sapiens, UniProt Q06418); assay: Kinase enzymatic activity assay ([33P]-ATP phosphate transfer), Tyro3; settings: inhibitory activity on Tyro3; class symbols
# T1 construct: GST (N); made in house; host or cells: Sf9 insect cells (baculovirus)
# T1 sequence (Q06418 455-890 limits assumed): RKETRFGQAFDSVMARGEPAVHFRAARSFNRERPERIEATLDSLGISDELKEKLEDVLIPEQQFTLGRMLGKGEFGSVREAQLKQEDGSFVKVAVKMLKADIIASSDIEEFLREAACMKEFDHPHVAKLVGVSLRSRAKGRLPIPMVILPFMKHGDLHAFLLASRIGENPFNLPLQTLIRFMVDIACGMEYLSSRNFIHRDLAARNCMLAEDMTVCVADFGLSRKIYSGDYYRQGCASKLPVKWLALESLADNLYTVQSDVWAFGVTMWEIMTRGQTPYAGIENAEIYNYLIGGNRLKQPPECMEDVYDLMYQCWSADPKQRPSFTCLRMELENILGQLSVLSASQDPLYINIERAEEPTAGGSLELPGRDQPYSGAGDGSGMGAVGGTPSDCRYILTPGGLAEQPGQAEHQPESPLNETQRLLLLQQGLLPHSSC
# Procedure: (§1) Preparation of Active Recombinant Kinase Proteins:
# (§2) Recombinant human Tyro3 (455-end, the gene accession number NM_006293), human Axl (473-end, the gene accession number NM_021913) and human Mer (578-872, the gene accession number NM_006343) were independently expressed by baculovirus in Sf9 insect cells using an N-terminal GST tag. The recombinant proteins were stored at −70° C. in a medium containing 50 mM Tris-HCl, pH 7.5, 150 mM NaCl, 10 mM glutathione, 0.1 mM EDTA, 0.25 mM DTT, 0.1 mM PMSF and 25% glycerol. The recombinant proteins were aliquoted into smaller quantities after centrifugation to avoid repeated handling and multiple freeze/thaw cycles for the most favorable performance.
# (§3) Preparation of Assay Reagents:
# (§4) Kinase Assay Buffer: This buffer solution consisted of the following components: 25 mM MOPS, pH 7.2, 12.5 mM β-glycerol-phosphate, 25 mM MgCl2, 5 mM EGTA, 2 mM EDTA and DTT 0.25 mM which was added prior to use.
# (§5) Kinase Dilution Buffer: Kinase Assay Buffer was diluted at a 1:4 ratio (5× dilution) with distilled water.
# (§6) [^33P]-ATP assay cocktail: In a designated radioactive working area, a 250 μM [^33P]-ATP assay cocktail was prepared by the addition of the following components: 150 μL of 10 mM ATP stock solution, 100 μL [^33P]-ATP (1 mci/100 μL), 5.75 mL of kinase assay buffer. This solution was stored in 1 mL aliquots at −20 OC.
# (§7) ATP stock solution (10 mM): The ATP stock solution was prepared by dissolving 55 mg of ATP in 10 mL of kinase assay buffer. It was stored in 200 μL aliquots at −20° C.
# (§8) Active Kinase Stock Solution: The active recombinant kinase protein (0.1 μg/μL) was diluted with Kinase Dilution Buffer and the activity was assayed using a serial dilution method. The specific activity is expressed in nmoL/min/mg.
# (§9) Substrates: poly(4:1 glu:tyr) is the substrate used for each kinase Tyro3, Axl and Mer: The peptide substrate was dissolved in water to give the final concentration of 1 mg/mL.
# (§10) Test compound solution: Test compound was dissolved in DMSO to obtain a 10 mM solution. The assay solution was prepared by adding 5 μL of this solution to […] of 10% DMSO/water to obtain the final concentration of 50 μM.
# (§11) The enzymatic activity of all three kinases was determined as follows. Using a 96-well plate, the wells were divided into three categories: Blank wells, […] and Test wells. In Test wells, 5 μL of the test compound solution and 5 μL of the substrate solution were added. In Control wells, 5 μL of 10% DMSO/water and 5 μL of the substrate solution were added. In Blank wells, 10 μL of 10% DMSO/water was added. To each well was added 10 μL of Active Kinase Stock Solution to make up the volume in each well to 20 μL. All test samples, controls and blanks were run in duplicate. The reaction was initiated by the addition of 5 μL of [^33P]-ATP assay cocktail, bringing the final volume up to 25 μL in every well. The mixture was incubated at room temperature for 30 minutes. The reaction was terminated by transferring 10 μL of the reaction mixture into a Millipore MultiScreen filter plate (cat. number MSPHN6B50). The filter plate was washed in a 1% phosphoric acid solution with constant gentle shaking for 15 minutes and this step was repeated once. After the plate was dried in air, scintillation fluid was added to each well and the radioactivity in each well in CPM was counted by a Microbeta TriLux. The corrected CPM in each test well was determined by subtracting the average value of Blank well values. Percentage of inhibition of the kinase enzymatic activity by the test compound was determined using the following formula: […]
# (§12) The IC50 values were determined in a similar way following a serial dilution of the test compound. The percentage of inhibition at each concentration was calculated following the above formula. The IC50 was estimated from the curve of % Inhibition against Concentration in log unit using Prism 5, version 5.01.
# human Axl (473-end) = target: T2, human Axl (473-end) (Homo sapiens, UniProt P30530); assay: Kinase enzymatic activity assay ([33P]-ATP phosphate transfer), Axl; settings: inhibitory activity on Axl; class symbols
# T2 construct: GST (N); made in house; host or cells: Sf9 insect cells (baculovirus)
# T2 sequence (P30530 473-894 limits assumed): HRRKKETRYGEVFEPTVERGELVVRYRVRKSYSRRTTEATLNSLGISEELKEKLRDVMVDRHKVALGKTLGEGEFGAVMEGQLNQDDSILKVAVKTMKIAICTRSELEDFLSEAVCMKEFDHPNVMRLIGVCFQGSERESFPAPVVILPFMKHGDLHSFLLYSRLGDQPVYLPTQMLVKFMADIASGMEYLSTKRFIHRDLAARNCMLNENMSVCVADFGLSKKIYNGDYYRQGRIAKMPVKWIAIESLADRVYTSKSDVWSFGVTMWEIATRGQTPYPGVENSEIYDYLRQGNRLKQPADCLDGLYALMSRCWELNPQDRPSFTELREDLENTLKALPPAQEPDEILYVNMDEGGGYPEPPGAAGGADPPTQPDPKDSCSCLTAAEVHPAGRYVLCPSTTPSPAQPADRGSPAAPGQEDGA
# Procedure: as §1, §2, §3, §4, §5, §6, §7, §8, §9, §10, §11, §12
# human Mer (578-872) = target: T3, human Mer (578-872) (Homo sapiens, UniProt Q12866); assay: Kinase enzymatic activity assay ([33P]-ATP phosphate transfer), Mer; settings: inhibitory activity on Mer; class symbols
# T3 construct: GST (N); made in house; host or cells: Sf9 insect cells (baculovirus)
# T3 sequence (Q12866 578-872): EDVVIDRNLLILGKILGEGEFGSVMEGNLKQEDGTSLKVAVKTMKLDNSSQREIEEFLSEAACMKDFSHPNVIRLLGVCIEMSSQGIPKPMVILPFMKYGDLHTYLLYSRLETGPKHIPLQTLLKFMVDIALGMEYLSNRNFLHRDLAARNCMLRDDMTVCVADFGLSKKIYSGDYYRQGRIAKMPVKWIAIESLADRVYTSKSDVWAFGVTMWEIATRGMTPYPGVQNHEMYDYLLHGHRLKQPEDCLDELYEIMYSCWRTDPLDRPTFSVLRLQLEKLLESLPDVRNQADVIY
# Procedure: as §1, §2, §3, §4, §5, §6, §7, §8, §9, §10, §11, §12
SMILES,IC50 [1] [nM],IC50 (human Axl (473-end)) [nM],IC50 (human Mer (578-872)) [nM]
Nc1ncc(-c2cnn(C3CCOCC3)c2)cc1-c1ncc(-c2ccc(Cl)cc2)o1,> 10000,> 10000,> 10000
Nc1ncc(-c2cnn(C3CCNCC3)c2)cc1-c1nnc(C2CCCCC2)o1,< 500,< 500,< 500
CCCCCCCCCCCCN1CCC(n2cc(-c3cnc(N)c(-c4ncc(-c5ccccc5)o4)c3)cn2)CC1,< 500,< 500,500 to 1000
Nc1ncc(-c2cnn(C3CCN(C(=O)c4ccccc4)CC3)c2)cc1-c1ncc(-c2cccc(Cl)c2)o1,< 500,< 500,1000 to 10000
CC(C)(C)OC(=O)N1CCC(n2cc(-c3cnc(N)c(-c4nnc(-c5ccc(C(C)(C)C)cc5)o4)c3)cn2)CC1,1000 to 10000,500 to 1000,< 500
"Nc1ncc(-c2cnn(C3CCN(C(=O)Cc4ccccc4)CC3)c2)cc1-c1nc(-c2ccccc2)no1 [1-(4-(4-(6-amino-5-(3-phenyl-1,2,4-oxadiazol-5-yl)pyridin-3-yl)-1H-pyrazol-1-yl)piperidin-1-yl)-2-phenylethanone]",1000 to 10000,500 to 1000,1000 to 10000
"CC(=O)N1CCC(n2cc(-c3cnc(N)c(-c4nc(-c5ccccc5)no4)c3)cn2)CC1 [1-(4-(4-(6-amino-5-(3-phenyl-1,2,4-oxadiazol-5-yl)pyridin-3-yl)-1H-pyrazol-1-yl)piperidin-1-yl)ethanone]",< 500,< 500,< 500
"Nc1ncc(-c2cnn(C3CCN(C(=O)Cc4ccccc4)CC3)c2)cc1-c1nnc(-c2c(Cl)cccc2Cl)o1 [1-(4-(4-(6-amino-5-(5-(2,6-dichlorophenyl)-1,3,4-oxadiazol-2-yl)pyridin-3-yl)-1H-pyrazol-1-yl)piperidin-1-yl)-2-phenylethanone]",1000 to 10000,1000 to 10000,1000 to 10000
"CC(C)CCC(=O)N1CCC(n2cc(-c3cnc(N)c(-c4nnc(-c5c(Cl)cccc5Cl)o4)c3)cn2)CC1 [1-(4-(4-(6-amino-5-(5-(2,6-dichlorophenyl)-1,3,4-oxadiazol-2-yl)pyridin-3-yl)-1H-pyrazol-1-yl)piperidin-1-yl)-4-methylpentan-1-one]",500 to 1000,< 500,< 500
"CC(=O)N1CCC(n2cc(-c3cnc(N)c(-c4nnc(-c5c(Cl)cccc5Cl)o4)c3)cn2)CC1 [1-(4-(4-(6-amino-5-(5-(2,6-dichlorophenyl)-1,3,4-oxadiazol-2-yl)pyridin-3-yl)-1H-pyrazol-1-yl)piperidin-1-yl)ethanone]",< 500,< 500,< 500
"CC(C)(C)C(=O)N1CCC(n2cc(-c3cnc(N)c(-c4ncc(-c5cccc(Cl)c5)o4)c3)cn2)CC1 [1-(4-(4-(6-amino-5-(5-(3-chlorophenyl)oxazol-2-yl)pyridin-3-yl)-1H-pyrazol-1-yl)piperidin-1-yl)-2,2-dimethylpropan-1-one]",< 500,< 500,1000 to 10000
Nc1ncc(-c2cnn(C3CCN(C(=O)Cc4ccccc4)CC3)c2)cc1-c1ncc(-c2cccc(Cl)c2)o1 [1-(4-(4-(6-amino-5-(5-(3-chlorophenyl)oxazol-2-yl)pyridin-3-yl)-1H-pyrazol-1-yl)piperidin-1-yl)-2-phenylethanone],< 500,< 500,1000 to 10000
CC(=O)N1CCC(n2cc(-c3cnc(N)c(-c4ncc(-c5cccc(Cl)c5)o4)c3)cn2)CC1 [1-(4-(4-(6-amino-5-(5-(3-chlorophenyl)oxazol-2-yl)pyridin-3-yl)-1H-pyrazol-1-yl)piperidin-1-yl)ethanone],< 500,< 500,< 500
Nc1ncc(-c2cnn(C3CCN(C(=O)Cc4ccccc4)CC3)c2)cc1-c1ncc(-c2ccc(Cl)cc2)o1 [1-(4-(4-(6-amino-5-(5-(4-chlorophenyl)oxazol-2-yl)pyridin-3-yl)-1H-pyrazol-1-yl)piperidin-1-yl)-2-phenylethanone],< 500,< 500,1000 to 10000
CC(=O)N1CCC(n2cc(-c3cnc(N)c(-c4ncc(-c5ccc(Cl)cc5)o4)c3)cn2)CC1 [1-(4-(4-(6-amino-5-(5-(4-chlorophenyl)oxazol-2-yl)pyridin-3-yl)-1H-pyrazol-1-yl)piperidin-1-yl)ethanone],> 10000,> 10000,> 10000
"Nc1ncc(-c2cnn(C3CCNCC3)c2)cc1-c1nnc(-c2cc(F)ccc2F)o1 [3-(5-(2,5-difluorophenyl)-1,3,4-oxadiazol-2-yl)-5-(1-(piperidin-4-yl)-1H-pyrazol-4-yl)pyridin-2-amine]",< 500,< 500,–
"Nc1ncc(-c2cnn(C3CCNCC3)c2)cc1-c1nnc(-c2c(Cl)cccc2Cl)o1 [3-(5-(2,6-dichlorophenyl)-1,3,4-oxadiazol-2-yl)-5-(1-(piperidin-4-yl)-1H-pyrazol-4-yl)pyridin-2-amine]",< 500,< 500,–
"CC(C)(C)OC(=O)N1CCC(n2cc(-c3cnc(N)c(-c4nnc(-c5c(Cl)cccc5Cl)o4)c3)cn2)CC1 [tert-butyl 4-(4-(6-amino-5-(5-(2,6-dichlorophenyl)-1,3,4-oxadiazol-2-yl)pyridin-3-yl)-1H-pyrazol-1-yl)piperidine-1-carboxylate]",1000 to 10000,500 to 1000,–
